Measurements taken from publication PMC10447463, “Data-mining unveils structure–property–activity correlation of viral infectivity enhancing self-assembling peptides” (Nature Communications, 2023).
Read-outs that look alike come from different tables or passages of the source.

Columns and labels:
[1] = system: HIV-1 infection of TZM-bl cells; assay: HIV-1 infectivity enhancement assay, β-galactosidase luminescence; assay type: cell-based
[2] = assay type: physicochemical; parameters: key to Fibril / Fibril Formation / TEM 2cat / Fibril: 1 = fibrils present; 0 non-fibrillar structures
[3] = assay type: physicochemical; details: for Tht category (> 1.5 to blank = +): category 1/0
Outline: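 Fibrils (1 mg/mL solution) were mixed with 50 µM ThT in PBS for 15 min at RT, and fluorescence was read at λex 440/λem 488 nm against a PBS blank, as a triplicate mean ± SD. Zeta potential came from electrophoretic mobility (Smoluchowski) after 1 d aggregation at 1 mg/mL in PBS pH 7.4, diluted into 1 mM KCl.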

[4] = Feb2021; figures match the 1.3 µM column
[5] = Feb2021; infectivity relative to virus only
[6] = Feb2021; log10 of infectivity relative to EF-C
[7] = Feb2021; n-fold infectivity relative to EF-C
[8] = infectivity class (low / medium / high) of each library peptide; main list in c1-c6, same classes repeated in sub-lists of sequences containing the hydrophobicity/charge patterns P+,H0,P+,H0,P0,H0,P0; P+,H0,P0,H0,P0,H0,P0; P+,H0,P0,H0
[9] = log10 of HIV-1 infection of TZM-bl cells relative to EF-C; Fig S15 source data; asymmetric std dev errors
[10] = ThT fluorescence relative to blank, blank = 42.1851851851852
[11] = Feb2021 run; infectivity n-fold relative to virus alone
[12] = Feb2021 run; log10 of infectivity relative to EF-C
[13] = Feb2021 run; n-fold infectivity relative to EF-C
[14] = infectivity enhancement relative to EF-C (=1); Feb2021 run
[15] = infectivity n-fold relative to virus only; Feb2021 run
[16] = log10 of infectivity relative to EF-C; Feb2021 run
[17] = ThT fluorescence relative to blank (42.1851851851852 a.u.)
[18] = relative to blank 42.1851851851852 a.u.

Substance | Absolute Infectivity / RLU /s (Feb2021) [1, 4] [RLU /s] | n-fold to virus (Feb2021) [1, 5] | Log10 of Rel to EFC (Feb2021) [1, 6] | Rel-to EFC (Feb-2021) [1, 7] | infectivity [1, 8] | Log10 Inf. rel. to EF-C [1, 9] | TEM: 1= fibrils, 0= aggregates (micelle), 0.5 = aggregates and fibrils, -1 = nothing obersved, STD prep [2] | Tht rel to blank (42.1851851851852) [3, 10] | Tht category (> 1.5 to blank = +) [3] | n-fold to virus (Feb2021) [1, 11] | Log10 of Rel to EFC (Feb2021) [1, 12] | Rel-to EFC (Feb-2021) [1, 13] | Rel-to EFC (Feb-2021) [1, 14] | n-fold to virus (Feb2021) [1, 15] | Log10 of Rel to EFC (Feb2021) [1, 16] | Tht rel to blank (42.1851851851852) [3, 17] | Tht rel to blank (42.1851851851852) [3, 18] | other results
KAKQAANMWQ [JG6] | 343.3 | 1.2875 | -1.514 | 0.03064 | low | -1.514 | 0.5 | 1.208 | 0 (ThT-inactive (N-Fold <2)) |  |  |  |  |  |  |  |  | 
VHDCVNITIK [reference compound] |  |  |  |  |  |  |  |  |  |  |  |  |  |  |  |  |  | Log10 Infection Rel EF-C ([1]; log10 of infection relative to EF-C, Figure 7B): -0.27; Inf. rel. EF-C ([1]; n-fold infection vs virus only, relative to that of EF-C, 1.3 µM peptide): 0.53; Abs Infection at 0.26µM ([1]; peptide 0.26 µM, mean of n = 3, Figure 7A): 46666.66667; Abs Infection at 1.3 µM ([1]; peptide 1.3 µM, mean of n = 3, Figure 7A): 86910; Abs Infection at 6.5 µM ([1]; peptide 6.5 µM, mean of n = 3, Figure 7A): 136243.3333; Fibril / Fibril Formation ([2]; TEM, 1 mg/mL, uranyl acetate stain, qualitative): 1; ThT Cat. / ThT-Fluorescence (categorical) ([3]; ThT-active if fluorescence at least twice the control): 1 (ThT. Cat is 1, if Rel. ThT >2)
KFKFQFFF [TG12] | 8657 | 16.97 | -0.3937 | 0.404 | medium | -0.3936 | 1 | 2.58 | 1 (ThT. Cat is 1, if Rel. ThT >2) | 16.97 | -0.3937 | 0.404 | 0.404 | 16.97 | -0.3937 | 2.58 | 2.58 | 
KIKIQIW [TM69] | 4280 | 5.89 | -0.8533 | 0.1402 | medium | -0.8533 | 1 | 2.047 | 1 (ThT. Cat is 1, if Rel. ThT >2) | 5.89 | -0.8533 | 0.1402 |  |  |  |  | 2.047 | 
KFKFQFF [TG6] | 2850 | 5.12 | -0.9142 | 0.1218 | medium | -0.9142 | 1 | 2.58 | 1 (ThT. Cat is 1, if Rel. ThT >2) | 5.12 | -0.9142 | 0.1218 | 0.1218 | 5.12 | -0.9142 | 2.58 | 2.58 | 
HHHHKAKAKAKAWWWW [TM8] | 3233 | 3.76 | -1.048 | 0.08948 |  | -1.048 | 0.5 | 3.672 | 1 (ThT. Cat is 1, if Rel. ThT >2) |  |  |  |  |  |  |  |  | infectivity ([1]; infectivity class (low / medium / high) of the peptide in the sequence-pattern analysis, Fig. S22-A4; class limits not given): low
